Source: US20230017045A1, “PYRIDINE AND PYRIMIDINE CARBOXYLATE HERBICIDES AND METHODS OF USE THEREOF” (Dow AgroSciences LLC, priority 2017, published 2023)

The molecules below were run on test plant species (assay: Post-emergent herbicidal activity test (greenhouse, foliar spray, visual growth reduction)). Conditions: post-emergence, 336 h, ALOMY: blackgrass (Alopecurus myosuroides), 140 g ai/ha, 14 days after application, read-out: Visual Growth Reduction (%) 14 Days After Application, ALOMY.
Assay type: in vivo
Outline: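 Scoring used a 0 to 100 percent visual scale of growth reduction against solvent-treated controls, read 14 d after spraying. Applications went onto plants at first or second true leaf stage, 187 L/ha, with crop oil concentrate and X-77 surfactant in the carrier. Post-treatment watering was by subirrigation to avoid wash-off.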

Compound	pest or weed control at 140 g/ha [%]
COC(=O)c1nc(-c2ccc(OC(F)(F)F)cc2F)c(F)cc1Cl [F187, Methyl 3-chloro-5-fluoro-6-(2-fluoro-4-(trifluoromethoxy)phenyl)picolinate]	0 to 29

Same assay, conditions: post-emergence, 336 h, AMARE: redroot pigweed (Amaranthus retroflexus), 140 g ai/ha, 14 days after application, read-out: Visual Growth Reduction (%) 14 Days After Application, AMARE

Compound	pest or weed control at 140 g/ha [%]
COC(=O)c1nc(-c2ccc(OC(F)(F)F)cc2F)c(F)cc1Cl [F187, Methyl 3-chloro-5-fluoro-6-(2-fluoro-4-(trifluoromethoxy)phenyl)picolinate]	85 to 94

Same assay, conditions: post-emergence, 336 h, AVEFA: wild oat (Avena fatua), 140 g ai/ha, 14 days after application, read-out: Visual Growth Reduction (%) 14 Days After Application, AVEFA

Compound	pest or weed control at 140 g/ha [%]
COC(=O)c1nc(-c2ccc(OC(F)(F)F)cc2F)c(F)cc1Cl [F187, Methyl 3-chloro-5-fluoro-6-(2-fluoro-4-(trifluoromethoxy)phenyl)picolinate]	30 to 44

Same assay, conditions: post-emergence, 336 h, CHEAL: lambsquarters (Chenopodium album), 140 g ai/ha, 14 days after application, read-out: Visual Growth Reduction (%) 14 Days After Application, CHEAL

Compound	pest or weed control at 140 g/ha [%]
COC(=O)c1nc(-c2ccc(OC(F)(F)F)cc2F)c(F)cc1Cl [F187, Methyl 3-chloro-5-fluoro-6-(2-fluoro-4-(trifluoromethoxy)phenyl)picolinate]	75 to 84

Same assay, conditions: post-emergence, 336 h, CIRAR: canada thistle (Cirsium arvense), 140 g ai/ha, 14 days after application, read-out: Visual Growth Reduction (%) 14 Days After Application, CIRAR

Compound	pest or weed control at 140 g/ha [%]
COC(=O)c1nc(-c2ccc(OC(F)(F)F)cc2F)c(F)cc1Cl [F187, Methyl 3-chloro-5-fluoro-6-(2-fluoro-4-(trifluoromethoxy)phenyl)picolinate]	75 to 84

Same assay, conditions: post-emergence, 336 h, CYPES: yellow nutsedge (Cyperus esculentus), 140 g ai/ha, 14 days after application, read-out: Visual Growth Reduction (%) 14 Days After Application, CYPES

Compound	pest or weed control at 140 g/ha [%]
COC(=O)c1nc(-c2ccc(OC(F)(F)F)cc2F)c(F)cc1Cl [F187, Methyl 3-chloro-5-fluoro-6-(2-fluoro-4-(trifluoromethoxy)phenyl)picolinate]	30 to 44

Same assay, conditions: post-emergence, 336 h, DIGSA: crabgrass (Digitaria sanguinalis), 140 g ai/ha, 14 days after application, read-out: Visual Growth Reduction (%) 14 Days After Application, DIGSA

Compound	pest or weed control at 140 g/ha [%]
COC(=O)c1nc(-c2ccc(OC(F)(F)F)cc2F)c(F)cc1Cl [F187, Methyl 3-chloro-5-fluoro-6-(2-fluoro-4-(trifluoromethoxy)phenyl)picolinate]	85 to 94

Same assay, conditions: post-emergence, 336 h, ECHCG: barnyardgrass (Echinochloa crus-galli), 140 g ai/ha, 14 days after application, read-out: Visual Growth Reduction (%) 14 Days After Application, ECHCG

Compound	pest or weed control at 140 g/ha [%]
COC(=O)c1nc(-c2ccc3ccccc3c2)c(F)cc1Cl [F340, Methyl 3-chloro-5-fluoro-6-(naphthalen-2-yl)picolinate]	0 to 29
C=Cc1cc(C(F)(F)F)cc(Cl)c1-c1ccc(Cl)c(C(=O)OC)n1 [F216, methyl 3-chloro-6-(2-chloro-4-(trifluoromethyl)-6-vinylphenyl)picolinate]	0 to 29
COC(=O)c1nc(-c2ccc(OC(F)(F)F)cc2F)c(F)cc1Cl [F187, Methyl 3-chloro-5-fluoro-6-(2-fluoro-4-(trifluoromethoxy)phenyl)picolinate]	45 to 59

Same assay, conditions: post-emergence, 336 h, IPOHE: ivy-leaf morning glory (Ipomoea hederacea), 140 g ai/ha, 14 days after application, read-out: Visual Growth Reduction (%) 14 Days After Application, IPOHE

Compound	pest or weed control at 140 g/ha [%]
COC(=O)c1nc(-c2ccc3ccccc3c2)c(F)cc1Cl [F340, Methyl 3-chloro-5-fluoro-6-(naphthalen-2-yl)picolinate]	0 to 29
C=Cc1cc(C(F)(F)F)cc(Cl)c1-c1ccc(Cl)c(C(=O)OC)n1 [F216, methyl 3-chloro-6-(2-chloro-4-(trifluoromethyl)-6-vinylphenyl)picolinate]	95 to 100
COC(=O)c1nc(-c2ccc(OC(F)(F)F)cc2F)c(F)cc1Cl [F187, Methyl 3-chloro-5-fluoro-6-(2-fluoro-4-(trifluoromethoxy)phenyl)picolinate]	95 to 100

Same assay, conditions: post-emergence, 336 h, KCHSC: kochia (Bassia scoparia), 140 g ai/ha, 14 days after application, read-out: Visual Growth Reduction (%) 14 Days After Application, KCHSC

Compound	pest or weed control at 140 g/ha [%]
COC(=O)c1nc(-c2ccc3ccccc3c2)c(F)cc1Cl [F340, Methyl 3-chloro-5-fluoro-6-(naphthalen-2-yl)picolinate]	0 to 29
C=Cc1cc(C(F)(F)F)cc(Cl)c1-c1ccc(Cl)c(C(=O)OC)n1 [F216, methyl 3-chloro-6-(2-chloro-4-(trifluoromethyl)-6-vinylphenyl)picolinate]	30 to 44
COC(=O)c1nc(-c2ccc(OC(F)(F)F)cc2F)c(F)cc1Cl [F187, Methyl 3-chloro-5-fluoro-6-(2-fluoro-4-(trifluoromethoxy)phenyl)picolinate]	45 to 59

Same assay, conditions: post-emergence, 336 h, ORYSA: rice (Oryza sativa), 140 g ai/ha, 14 days after application, read-out: Visual Growth Reduction (%) 14 Days After Application, ORYSA

Compound	pest or weed control at 140 g/ha [%]
COC(=O)c1nc(-c2ccc3ccccc3c2)c(F)cc1Cl [F340, Methyl 3-chloro-5-fluoro-6-(naphthalen-2-yl)picolinate]	0 to 29
C=Cc1cc(C(F)(F)F)cc(Cl)c1-c1ccc(Cl)c(C(=O)OC)n1 [F216, methyl 3-chloro-6-(2-chloro-4-(trifluoromethyl)-6-vinylphenyl)picolinate]	0 to 29
COC(=O)c1nc(-c2ccc(OC(F)(F)F)cc2F)c(F)cc1Cl [F187, Methyl 3-chloro-5-fluoro-6-(2-fluoro-4-(trifluoromethoxy)phenyl)picolinate]	0 to 29

Same assay, conditions: post-emergence, 336 h, SETFA: giant foxtail (Setaria faberi), 140 g ai/ha, 14 days after application, read-out: Visual Growth Reduction (%) 14 Days After Application, SETFA

Compound	pest or weed control at 140 g/ha [%]
COC(=O)c1nc(-c2ccc3ccccc3c2)c(F)cc1Cl [F340, Methyl 3-chloro-5-fluoro-6-(naphthalen-2-yl)picolinate]	0 to 29
C=Cc1cc(C(F)(F)F)cc(Cl)c1-c1ccc(Cl)c(C(=O)OC)n1 [F216, methyl 3-chloro-6-(2-chloro-4-(trifluoromethyl)-6-vinylphenyl)picolinate]	60 to 74
COC(=O)c1nc(-c2ccc(OC(F)(F)F)cc2F)c(F)cc1Cl [F187, Methyl 3-chloro-5-fluoro-6-(2-fluoro-4-(trifluoromethoxy)phenyl)picolinate]	75 to 84

Same assay, conditions: post-emergence, 336 h, SORVU: grain sorghum (Sorghum vulgare), 140 g ai/ha, 14 days after application, read-out: Visual Growth Reduction (%) 14 Days After Application, SORVU

Compound	pest or weed control at 140 g/ha [%]
COC(=O)c1nc(-c2ccc3ccccc3c2)c(F)cc1Cl [F340, Methyl 3-chloro-5-fluoro-6-(naphthalen-2-yl)picolinate]	0 to 29
C=Cc1cc(C(F)(F)F)cc(Cl)c1-c1ccc(Cl)c(C(=O)OC)n1 [F216, methyl 3-chloro-6-(2-chloro-4-(trifluoromethyl)-6-vinylphenyl)picolinate]	60 to 74
COC(=O)c1nc(-c2ccc(OC(F)(F)F)cc2F)c(F)cc1Cl [F187, Methyl 3-chloro-5-fluoro-6-(2-fluoro-4-(trifluoromethoxy)phenyl)picolinate]	95 to 100

Same assay, conditions: post-emergence, 336 h, STEME: common chickweed (Stellaria media), 140 g ai/ha, 14 days after application, read-out: Visual Growth Reduction (%) 14 Days After Application, STEME

Compound	pest or weed control at 140 g/ha [%]
COC(=O)c1nc(-c2ccc3ccccc3c2)c(F)cc1Cl [F340, Methyl 3-chloro-5-fluoro-6-(naphthalen-2-yl)picolinate]	0 to 29
C=Cc1cc(C(F)(F)F)cc(Cl)c1-c1ccc(Cl)c(C(=O)OC)n1 [F216, methyl 3-chloro-6-(2-chloro-4-(trifluoromethyl)-6-vinylphenyl)picolinate]	0 to 29
COC(=O)c1nc(-c2ccc(OC(F)(F)F)cc2F)c(F)cc1Cl [F187, Methyl 3-chloro-5-fluoro-6-(2-fluoro-4-(trifluoromethoxy)phenyl)picolinate]	0 to 29

Same assay, conditions: post-emergence, 336 h, TRZAS: wheat, spring (Triticum aestivum), 140 g ai/ha, 14 days after application, read-out: Visual Growth Reduction (%) 14 Days After Application, TRZAS

Compound	pest or weed control at 140 g/ha [%]
COC(=O)c1nc(-c2ccc3ccccc3c2)c(F)cc1Cl [F340, Methyl 3-chloro-5-fluoro-6-(naphthalen-2-yl)picolinate]	0 to 29
C=Cc1cc(C(F)(F)F)cc(Cl)c1-c1ccc(Cl)c(C(=O)OC)n1 [F216, methyl 3-chloro-6-(2-chloro-4-(trifluoromethyl)-6-vinylphenyl)picolinate]	45 to 59
COC(=O)c1nc(-c2ccc(OC(F)(F)F)cc2F)c(F)cc1Cl [F187, Methyl 3-chloro-5-fluoro-6-(2-fluoro-4-(trifluoromethoxy)phenyl)picolinate]	30 to 44

Same assay, conditions: post-emergence, 336 h, blackgrass (Alopecurus myosuroides), 14 Days After Application, 140 g ai/ha, read-out: Visual Growth Reduction (%) ALOMY

Compound	pest or weed control at 140 g/ha [%]
COC(=O)c1nc(-c2ccc3ccccc3c2)c(F)cc1Cl [F340, Methyl 3-chloro-5-fluoro-6-(naphthalen-2-yl)picolinate]	0 to 29
C=Cc1cc(C(F)(F)F)cc(Cl)c1-c1ccc(Cl)c(C(=O)OC)n1 [F216, methyl 3-chloro-6-(2-chloro-4-(trifluoromethyl)-6-vinylphenyl)picolinate]	0 to 29

Same assay, conditions: post-emergence, 336 h, canada thistle (Cirsium arvense), 14 Days After Application, 140 g ai/ha, read-out: Visual Growth Reduction (%) CIRAR

Compound	pest or weed control at 140 g/ha [%]
C=Cc1cc(C(F)(F)F)cc(Cl)c1-c1ccc(Cl)c(C(=O)OC)n1 [F216, methyl 3-chloro-6-(2-chloro-4-(trifluoromethyl)-6-vinylphenyl)picolinate]	60 to 74

Same assay, conditions: post-emergence, 336 h, crabgrass (Digitaria sanguinalis), 14 Days After Application, 140 g ai/ha, read-out: Visual Growth Reduction (%) DIGSA

Compound	pest or weed control at 140 g/ha [%]
COC(=O)c1nc(-c2ccc3ccccc3c2)c(F)cc1Cl [F340, Methyl 3-chloro-5-fluoro-6-(naphthalen-2-yl)picolinate]	0 to 29
C=Cc1cc(C(F)(F)F)cc(Cl)c1-c1ccc(Cl)c(C(=O)OC)n1 [F216, methyl 3-chloro-6-(2-chloro-4-(trifluoromethyl)-6-vinylphenyl)picolinate]	0 to 29

Same assay, conditions: post-emergence, 336 h, lambsquarters (Chenopodium album), 14 Days After Application, 140 g ai/ha, read-out: Visual Growth Reduction (%) CHEAL

Compound	pest or weed control at 140 g/ha [%]
COC(=O)c1nc(-c2ccc3ccccc3c2)c(F)cc1Cl [F340, Methyl 3-chloro-5-fluoro-6-(naphthalen-2-yl)picolinate]	0 to 29
C=Cc1cc(C(F)(F)F)cc(Cl)c1-c1ccc(Cl)c(C(=O)OC)n1 [F216, methyl 3-chloro-6-(2-chloro-4-(trifluoromethyl)-6-vinylphenyl)picolinate]	95 to 100

Same assay, conditions: post-emergence, 336 h, redroot pigweed (Amaranthus retroflexus), 14 Days After Application, 140 g ai/ha, read-out: Visual Growth Reduction (%) AMARE

Compound	pest or weed control at 140 g/ha [%]
COC(=O)c1nc(-c2ccc3ccccc3c2)c(F)cc1Cl [F340, Methyl 3-chloro-5-fluoro-6-(naphthalen-2-yl)picolinate]	0 to 29
C=Cc1cc(C(F)(F)F)cc(Cl)c1-c1ccc(Cl)c(C(=O)OC)n1 [F216, methyl 3-chloro-6-(2-chloro-4-(trifluoromethyl)-6-vinylphenyl)picolinate]	30 to 44

Same assay, conditions: post-emergence, 336 h, wild oat (Avena fatua), 14 Days After Application, 140 g ai/ha, read-out: Visual Growth Reduction (%) AVEFA

Compound	pest or weed control at 140 g/ha [%]
COC(=O)c1nc(-c2ccc3ccccc3c2)c(F)cc1Cl [F340, Methyl 3-chloro-5-fluoro-6-(naphthalen-2-yl)picolinate]	0 to 29
C=Cc1cc(C(F)(F)F)cc(Cl)c1-c1ccc(Cl)c(C(=O)OC)n1 [F216, methyl 3-chloro-6-(2-chloro-4-(trifluoromethyl)-6-vinylphenyl)picolinate]	0 to 29

Same assay, conditions: post-emergence, 336 h, yellow nutsedge (Cyperus esculentus), 14 Days After Application, 140 g ai/ha, read-out: Visual Growth Reduction (%) CYPES

Compound	pest or weed control at 140 g/ha [%]
COC(=O)c1nc(-c2ccc3ccccc3c2)c(F)cc1Cl [F340, Methyl 3-chloro-5-fluoro-6-(naphthalen-2-yl)picolinate]	0 to 29
C=Cc1cc(C(F)(F)F)cc(Cl)c1-c1ccc(Cl)c(C(=O)OC)n1 [F216, methyl 3-chloro-6-(2-chloro-4-(trifluoromethyl)-6-vinylphenyl)picolinate]	0 to 29
